Data on 24 compounds can be found in PubChem BioAssay (NCI).

Where “and” joins values, the source holds several entries; their conditions need not be identical. Equal values may be shown once.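 Briefly, cells in 96-well plates were exposed to five compound concentrations for 48 h, and endpoints were estimated by linear interpolation. At the GI50, growth is halved. At the TGI there is no net growth.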

Among the test systems are UACC-62 melanoma; HT29 colon; SK-MEL-5 melanoma; HCT-116 colon; NCI-H460 lung; RXF 393 renal; EKVX NSCLC; SK-OV-3 ovarian.
Common to all, as to assay: inhibition of tumour cell growth, NCI panel, 48 h

Regarding `O=C1CCCC(=O)C1=C(O)CCCCCCCCCCc1ccccc1`, the TGI with UACC-62 melanoma was above 100 µM; in the test on HT29 colon, 79 µM; in the test with SK-MEL-5 melanoma, 49.5 µM; in the test on HCT-116 colon, above 100 µM; with NCI-H460 lung it was above 100 µM; with RXF 393 renal, 92.7 µM. Also, the TGI in the test on EKVX NSCLC was above 100 µM; in the test with SK-OV-3 ovarian, 96.8 µM.
As to `CCOP(=O)(OCC)/C(C#N)=C/c1ccc[nH]1`, the TGI in the test with UACC-62 melanoma, in the test on HT29 colon, in the test with SK-MEL-5 melanoma, in the test with HCT-116 colon, with NCI-H460 lung and in the test with RXF 393 renal was above 100 µM throughout. The compound further displayed a TGI in the test with SK-OV-3 ovarian above 100 µM.
Take `Cn1cnc([N+](=O)[O-])c1Sc1nc2cccnc2s1`: the TGI in the test with UACC-62 melanoma is 32 µM; with HT29 colon it was 63.7 µM; in the test on SK-MEL-5 melanoma, 35.7 µM; in the test with HCT-116 colon, 29.5 µM; with NCI-H460 lung, above 100 µM; in the test with RXF 393 renal, 32.9 µM. Also, the figures for the TGI in the test on EKVX NSCLC and in the test with SK-OV-3 ovarian were 33.8 µM and above 100 µM, respectively.
`CCOC(=O)N[C@H]1CCc2cc(O)c(OC)c(OC)c2-c2ccc(SC)c(=O)cc21`: the TGI in the test with UACC-62 melanoma was above 100 µM; in the test on HT29 colon, 7.22 µM; with SK-MEL-5 melanoma it was 0.0145 µM; with HCT-116 colon, 10.7 µM; with NCI-H460 lung, 3.58 µM; with RXF 393 renal, 0.0207 µM. Besides, the TGI is above 100 µM in the test on EKVX NSCLC and above 8.57 µM in the test with SK-OV-3 ovarian.
Consider `CC1CC(=O)C(CC(=O)O)C1C(C(=O)C(=O)Nc1c(C#N)cccc1[N+](=O)[O-])[N+](=O)[O-]` (stereo not drawn), for which the TGI in the test with UACC-62 melanoma, in the test on HT29 colon, with SK-MEL-5 melanoma, in the test with HCT-116 colon, with NCI-H460 lung and with RXF 393 renal was above 100 µM throughout. Further, the TGI with EKVX NSCLC and with SK-OV-3 ovarian was above 100 µM throughout.
For `CCC[CH2][Sn]1([CH2]CCC)[O]C(=O)c2cccc(OC)c2[O]1`, the GI50 was 0.312 µM with UACC-62 melanoma; 0.798 µM with HT29 colon; 0.722 µM with SK-MEL-5 melanoma; 0.494 µM in the test on HCT-116 colon; 1.38 µM in the test on NCI-H460 lung; 1.31 µM in the test with EKVX NSCLC. In addition, the GI50 in the test on SK-OV-3 ovarian is 1.39 µM. Further, the TGI in the test with UACC-62 melanoma is 1.18 µM; in the test with HT29 colon it was 2.09 µM; in the test on SK-MEL-5 melanoma it was 2.11 µM; in the test on HCT-116 colon it was 1.69 µM; with NCI-H460 lung it was 2.9 µM; with EKVX NSCLC, 2.7 µM. In the test on SK-OV-3 ovarian, the TGI is 2.71 µM.
Consider `CCN(CC)CCC(=O)N1CCc2c([nH]c3ccccc23)C1c1cccnc1` (stereo not drawn), for which the TGI in the test with UACC-62 melanoma, in the test with HT29 colon, in the test on SK-MEL-5 melanoma, in the test with HCT-116 colon, in the test on NCI-H460 lung and with EKVX NSCLC was above 100 µM in each case. The TGI with SK-OV-3 ovarian is above 100 µM.
Take `O=C(Nc1ccc([N+](=O)[O-])cc1C(=O)O)c1ccc([N+](=O)[O-])cc1`: the TGI with UACC-62 melanoma was above 100 µM; in the test with HT29 colon it was above 100 µM; in the test with SK-MEL-5 melanoma, above 100 µM; with HCT-116 colon, 53.9 µM; in the test on NCI-H460 lung it was above 100 µM; with EKVX NSCLC it was above 100 µM. The compound also returned a TGI with SK-OV-3 ovarian above 100 µM.
For the compound `N#CCc1ccc(/C(C#N)=C2/OC(=N)C(c3ccc(CC#N)cc3)C2=O)cc1` (stereo not drawn), the TGI in the test on UACC-62 melanoma, in the test with HT29 colon, in the test on SK-MEL-5 melanoma, with HCT-116 colon, with NCI-H460 lung and in the test with RXF 393 renal was above 100 µM throughout. Besides, the TGI in the test on EKVX NSCLC and in the test with SK-OV-3 ovarian was above 100 µM in each case.
For the compound `N#CCCN(CCC#N)c1ccc(/C=N\c2nc(-c3ccccc3)cs2)cc1`, the TGI with UACC-62 melanoma, with HT29 colon, in the test on SK-MEL-5 melanoma, in the test with HCT-116 colon, with NCI-H460 lung and with RXF 393 renal was above 100 µM each time. The TGI with EKVX NSCLC and in the test on SK-OV-3 ovarian was above 100 µM throughout.
On to `Cn1cnc([N+](=O)[O-])c1SC1=NCCS1`, for which the TGI in the test with UACC-62 melanoma, in the test on HT29 colon, with SK-MEL-5 melanoma, with HCT-116 colon, in the test on NCI-H460 lung and in the test on EKVX NSCLC was above 100 µM in each case. This compound showed a TGI in the test on SK-OV-3 ovarian above 100 µM.
For `Cc1ccc(-c2nc3c(C(=O)NCCN(C)C)cccc3[nH]2)cc1`, the TGI in the test with UACC-62 melanoma came out at 32.5 µM; in the test on HT29 colon, 80.1 µM; with SK-MEL-5 melanoma it was 26.6 µM; with HCT-116 colon, 20.1 µM; in the test with NCI-H460 lung it was 21.1 µM; in the test with RXF 393 renal, 24.1 µM. In addition, the values for the TGI in the test on EKVX NSCLC and in the test on SK-OV-3 ovarian were 69.5 µM and 72.8 µM, respectively.
On to `C/C=C(\CCC1NCCc2c1[nH]c1ccccc21)[Si](C)(C)C` (stereo not drawn), for which the TGI was 11.8 µM and 12.3 µM in the test on UACC-62 melanoma; 10.4 µM and 5.03 µM with HT29 colon; 10.2 µM and 5.23 µM in the test on SK-MEL-5 melanoma; 10.3 µM and 3.13 µM in the test on HCT-116 colon; 10.9 µM and 3.78 µM in the test on NCI-H460 lung; 17.6 µM and 2.53 µM in the test with RXF 393 renal. Moreover, the TGI is 28.6 µM and 22.1 µM in the test on EKVX NSCLC; 25.2 µM and 26.5 µM in the test on SK-OV-3 ovarian. Further, the GI50 was 5.46 µM and 2.21 µM in the test with HT29 colon; 5.63 µM and 2.32 µM in the test on SK-MEL-5 melanoma; 5.6 µM and 1.71 µM in the test with HCT-116 colon; 5.56 µM and 1.92 µM with NCI-H460 lung.
Turning to `COc1ccc(CC2NCCc3cc(OC)c(OC)cc32)cc1` (stereo not drawn), the TGI in the test with UACC-62 melanoma, in the test on HT29 colon, in the test on SK-MEL-5 melanoma, with HCT-116 colon, with NCI-H460 lung and with RXF 393 renal was above 100 µM throughout. The TGI in the test on EKVX NSCLC and in the test on SK-OV-3 ovarian was above 100 µM each time.
In the case of `Cc1ccc(NC(=O)COC(=O)c2cccc3c(=O)c4ccccc4[nH]c23)cc1`, the TGI in the test on UACC-62 melanoma was above 100 µM; with HT29 colon it was above 100 µM; in the test on SK-MEL-5 melanoma, above 100 µM; with HCT-116 colon, above 100 µM; in the test on NCI-H460 lung, above 100 µM; with RXF 393 renal, 60.5 µM. Besides, the results for the TGI in the test on EKVX NSCLC and in the test on SK-OV-3 ovarian were above 100 µM and 92 µM, respectively.
As for `CC(=O)OC1(C#N)CC2OC1C1C2N1C(=O)OC(C)(C)C` (stereo not drawn), the TGI with UACC-62 melanoma, in the test on SK-MEL-5 melanoma, with HCT-116 colon, in the test on NCI-H460 lung, with RXF 393 renal and with EKVX NSCLC was above 100 µM throughout. Besides, in the test with SK-OV-3 ovarian, the TGI was above 100 µM.
Turning to `S=P1(c2ccccc2)Nc2ccc(Cl)cc2N1` (stereo not drawn), the TGI with UACC-62 melanoma was 26.4 µM; in the test with HT29 colon, above 100 µM; in the test with SK-MEL-5 melanoma it was above 100 µM; in the test with NCI-H460 lung, above 100 µM; in the test with EKVX NSCLC it was above 100 µM; with SK-OV-3 ovarian it was above 100 µM.
Turning to `COc1ccc(NC(=O)COC(=O)c2cccc3c(=O)c4ccccc4[nH]c23)cc1`, the TGI in the test on UACC-62 melanoma is 33.1 µM; with HT29 colon, 29.5 µM; with SK-MEL-5 melanoma it was 30.1 µM; in the test on HCT-116 colon, 25.5 µM; in the test on RXF 393 renal, 35.5 µM; in the test on EKVX NSCLC it was 96.2 µM. Also, the TGI in the test with SK-OV-3 ovarian stood at 67.4 µM.
Regarding `CCCCCCCCCCCCCC(=O)OC(/C=C/C(C)C)C(O)C(O)C(OC)C(=O)NC1CCCCNC1=O` (stereo not drawn), the GI50 with UACC-62 melanoma was 4.28 µM; in the test with HT29 colon, 4.03 µM; in the test with SK-MEL-5 melanoma, 6.53 µM; in the test with HCT-116 colon, 1.22 µM; in the test with NCI-H460 lung it was 0.461 µM. For the same compound, the TGI in the test with UACC-62 melanoma was determined as 3.74 µM; in the test on HT29 colon, 4.51 µM; with SK-MEL-5 melanoma, 5.25 µM; in the test on HCT-116 colon, 3.97 µM; in the test on NCI-H460 lung, 3.85 µM; in the test on RXF 393 renal it was 3.38 µM. For the same compound, the TGI was 11.5 µM in the test with EKVX NSCLC and 10.4 µM with SK-OV-3 ovarian.
Turning to `COCOCc1cc(OCc2ccccc2)c(OC)cc1Br`, the TGI in the test with UACC-62 melanoma, in the test on HT29 colon, in the test on SK-MEL-5 melanoma, in the test with HCT-116 colon, with NCI-H460 lung and in the test on RXF 393 renal was above 100 µM each time. Besides, in the test with EKVX NSCLC, the TGI was above 100 µM.
On to `O=C1Cc2ccccc2N1c1c(Cl)cccc1Cl`, for which the TGI in the test on UACC-62 melanoma, with HT29 colon, with SK-MEL-5 melanoma, in the test on HCT-116 colon, with NCI-H460 lung and with EKVX NSCLC was above 100 µM in each case. In addition, in the test with SK-OV-3 ovarian, the TGI is above 100 µM.
Regarding `CC1C=CC(C)C2(O)C(=O)NC(O)C12` (stereo not drawn), the TGI with UACC-62 melanoma, in the test with SK-MEL-5 melanoma, in the test with HCT-116 colon, in the test with NCI-H460 lung, with RXF 393 renal and in the test on EKVX NSCLC was above 100 µM in each case. The compound further yielded a TGI in the test on SK-OV-3 ovarian above 100 µM.
As for `Cc1cc(Cl)ccc1NC(=O)CC1SC(N)=NC1=O` (stereo not drawn), the TGI with UACC-62 melanoma, with HT29 colon, with SK-MEL-5 melanoma, in the test on NCI-H460 lung, with RXF 393 renal and in the test with EKVX NSCLC was above 100 µM each time. For the same compound, the TGI in the test with SK-OV-3 ovarian is above 100 µM.
In the case of `C=CCC12CC(=O)C=C1CCC1(C2)OCCO1` (stereo not drawn), the TGI in the test with UACC-62 melanoma, with SK-MEL-5 melanoma, with HCT-116 colon, with NCI-H460 lung, in the test on RXF 393 renal and in the test on SK-OV-3 ovarian was above 100 µM throughout.
